The source of these data is the OligoGym collection.

HELM strings list units from the 5' end as sugar, base in round brackets, then linkage (d deoxyribose, r ribose, m 2'-O-methyl, p phosphodiester). Strings are as the collection lists them, not checked against the first reports. ss, as = sense and antisense strand
Further: test system not given here.

The conditions of this series: siRNA.
With “RNA1{m(C)p.r(C)p.m(G)p.r(A)p.m(G)p.r(A)p.m(G)p.r(C)p.m(U)p.r(C)p.m(U)p.r(C)p.m(C)p.r(U)p.m(A)p.r(C)p.m(C)p.r(U)p.m(U)p.r(T)p.r(T)}|RNA2{r(A)p.r(A)p.r(G)p.r(G)p.r(U)p.r(A)p.r(G)p.r(G)p.r(A)p.r(G)p.r(A)p.r(G)p.r(C)p.r(U)p.r(C)p.r(U)p.r(C)p.r(G)p.r(G)p.r(T)p.r(T)}$$$RNA1{StrandType:ss}|RNA2{StrandType:as}$”, the target mRNA knockdown was 34%.

“RNA1{m(C)p.r(C)p.m(G)p.r(C)p.m(C)p.r(C)p.m(G)p.r(G)p.m(C)p.r(G)p.m(G)p.r(C)p.m(G)p.r(C)p.m(C)p.r(U)p.m(U)p.r(U)p.m(A)p.r(T)p.r(T)}|RNA2{r(U)p.r(A)p.r(A)p.r(A)p.r(G)p.r(G)p.r(C)p.r(G)p.r(C)p.r(C)p.r(G)p.r(C)p.r(C)p.r(G)p.r(G)p.r(G)p.r(C)p.r(G)p.r(G)p.r(T)p.r(T)}$$$RNA1{StrandType:ss}|RNA2{StrandType:as}$” came in with a target mRNA knockdown of 49%.

As for “RNA1{m(C)p.r(C)p.m(U)p.r(C)p.m(C)p.r(C)p.m(C)p.r(A)p.m(U)p.r(C)p.m(C)p.r(C)p.m(C)p.r(U)p.m(U)p.r(U)p.m(U)p.r(A)p.m(A)p.r(T)p.r(T)}|RNA2{r(U)p.r(U)p.r(A)p.r(A)p.r(A)p.r(A)p.r(G)p.r(G)p.r(G)p.r(G)p.r(A)p.r(U)p.m(G)p.r(G)p.m(G)p.r(G)p.m(A)p.r(G)p.m(G)p.r(T)p.r(T)}$$$RNA1{StrandType:ss}|RNA2{StrandType:as}$”, the target mRNA knockdown came out at 48%.

The substance “RNA1{m(C)p.r(C)p.m(U)p.r(C)p.m(G)p.r(G)p.m(A)p.r(G)p.m(A)p.r(G)p.m(U)p.r(U)p.m(C)p.r(U)p.m(A)p.r(C)p.m(U)p.r(C)p.r(U)p.r(T)p.r(T)}|RNA2{r(A)p.r(G)p.r(A)p.r(G)p.r(U)p.r(A)p.r(G)p.r(A)p.r(A)p.r(C)p.r(U)p.r(C)p.r(U)p.r(C)p.r(C)p.r(G)p.r(A)p.r(G)p.r(G)p.r(T)p.r(T)}$$$RNA1{StrandType:ss}|RNA2{StrandType:as}$” yielded a target mRNA knockdown of 34%.

The substance “RNA1{m(C)p.r(G)p.m(A)p.r(G)p.m(U)p.r(G)p.m(U)p.r(C)p.m(U)p.r(A)p.m(A)p.r(C)p.m(G)p.r(G)p.m(G)p.r(A)p.m(G)p.r(C)p.m(C)p.r(T)p.r(T)}|RNA2{r(G)p.r(G)p.r(C)p.r(U)p.r(C)p.r(C)p.r(C)p.r(G)p.r(U)p.r(U)p.r(A)p.r(G)p.r(A)p.r(C)p.r(A)p.r(C)p.r(U)p.r(C)p.r(G)p.r(T)p.r(T)}$$$RNA1{StrandType:ss}|RNA2{StrandType:as}$” registered a target mRNA knockdown of 25%.

In the case of “RNA1{m(C)p.r(G)p.m(C)p.r(C)p.m(C)p.r(C)p.m(C)p.r(C)p.m(U)p.r(C)p.m(A)p.r(A)p.m(G)p.r(C)p.m(U)p.r(A)p.m(C)p.r(C)p.m(G)p.r(T)p.r(T)}|RNA2{r(C)p.r(G)p.r(G)p.r(U)p.r(A)p.r(G)p.r(C)p.r(U)p.r(U)p.r(G)p.r(A)p.r(G)p.r(G)p.r(G)p.r(G)p.r(G)p.r(G)p.r(C)p.r(G)p.r(T)p.r(T)}$$$RNA1{StrandType:ss}|RNA2{StrandType:as}$”, the target mRNA knockdown came to 44%.

With “RNA1{m(C)p.r(G)p.m(G)p.r(A)p.m(U)p.r(C)p.m(U)p.r(A)p.m(C)p.r(A)p.m(C)p.r(C)p.m(U)p.r(U)p.m(C)p.r(A)p.m(A)p.r(G)p.m(A)p.r(T)p.r(T)}|RNA2{m(U)p.r(C)p.m(U)p.m(U)p.r(G)p.r(A)p.r(A)p.r(G)p.r(G)p.m(U)p.r(G)p.m(U)p.r(A)p.r(G)p.r(A)p.m(U)p.r(C)p.r(C)p.r(G)p.r(T)p.r(T)}$$$RNA1{StrandType:ss}|RNA2{StrandType:as}$”, the target mRNA knockdown amounted to 29%.

Turning to “RNA1{m(C)p.r(G)p.m(G)p.r(A)p.m(U)p.r(C)p.m(U)p.r(A)p.m(C)p.r(A)p.m(C)p.r(C)p.m(U)p.r(U)p.m(C)p.r(A)p.m(A)p.r(G)p.m(A)p.r(T)p.r(T)}|RNA2{r(U)p.r(C)p.r(U)p.r(U)p.r(G)p.r(A)p.r(A)p.r(G)p.r(G)p.r(U)p.r(G)p.r(U)p.m(A)p.r(G)p.m(A)p.r(U)p.m(C)p.r(C)p.m(G)p.r(T)p.r(T)}$$$RNA1{StrandType:ss}|RNA2{StrandType:as}$”, the target mRNA knockdown stood at 46%.

“RNA1{m(C)p.r(U)p.m(A)p.r(C)p.m(C)p.r(U)p.m(U)p.r(C)p.m(U)p.r(C)p.m(C)p.r(U)p.m(C)p.r(U)p.m(U)p.r(C)p.m(U)p.r(C)p.m(C)p.r(T)p.r(T)}|RNA2{r(G)p.r(G)p.r(A)p.r(G)p.r(A)p.r(A)p.r(G)p.r(A)p.r(G)p.r(G)p.r(A)p.r(G)p.r(A)p.r(A)p.r(G)p.r(G)p.r(U)p.r(A)p.r(G)p.r(T)p.r(T)}$$$RNA1{StrandType:ss}|RNA2{StrandType:as}$” registered a target mRNA knockdown of 27%.

For “RNA1{m(C)p.r(U)p.m(A)p.r(G)p.m(U)p.r(C)p.m(G)p.r(A)p.m(A)p.r(A)p.m(G)p.r(A)p.m(A)p.r(A)p.m(A)p.r(C)p.m(G)p.r(G)p.m(G)p.r(T)p.r(T)}|RNA2{r(C)p.r(C)p.r(C)p.r(G)p.r(U)p.r(U)p.r(U)p.r(U)p.r(C)p.r(U)p.r(U)p.r(U)p.r(C)p.r(G)p.m(A)p.r(C)p.r(U)p.m(A)p.r(G)p.r(T)p.r(T)}$$$RNA1{StrandType:ss}|RNA2{StrandType:as}$”, the target mRNA knockdown was determined as 23%.

Turning to “RNA1{m(C)p.r(U)p.m(C)p.r(A)p.m(A)p.r(A)p.m(U)p.r(C)p.m(A)p.r(A)p.m(G)p.r(G)p.m(C)p.r(C)p.m(G)p.r(G)p.m(A)p.r(G)p.m(U)p.r(T)p.r(T)}|RNA2{r(A)p.r(C)p.r(U)p.r(C)p.r(C)p.m(G)p.m(G)p.r(C)p.r(C)p.r(U)p.r(U)p.m(G)p.r(A)p.r(U)p.r(U)p.r(U)p.m(G)p.r(A)p.m(G)p.r(T)p.r(T)}$$$RNA1{StrandType:ss}|RNA2{StrandType:as}$”, the target mRNA knockdown turned out to be 36%.

Consider “RNA1{m(C)p.r(U)p.m(C)p.r(C)p.m(C)p.r(C)p.m(A)p.r(G)p.m(U)p.r(C)p.m(U)p.r(C)p.m(U)p.r(C)p.m(U)p.r(U)p.m(A)p.r(A)p.m(A)p.r(T)p.r(T)}|RNA2{r(U)p.r(U)p.r(U)p.r(A)p.r(A)p.r(G)p.r(A)p.r(G)p.r(A)p.r(G)p.r(A)p.r(C)p.r(U)p.r(G)p.r(G)p.r(G)p.r(G)p.r(A)p.r(G)p.r(T)p.r(T)}$$$RNA1{StrandType:ss}|RNA2{StrandType:as}$”, for which the target mRNA knockdown was 51%.

With “RNA1{m(C)p.r(U)p.m(C)p.r(C)p.m(G)p.r(A)p.m(C)p.r(A)p.m(G)p.r(A)p.m(U)p.r(G)p.m(A)p.r(A)p.m(G)p.r(G)p.m(A)p.r(A)p.m(A)p.r(T)p.r(T)}|RNA2{r(U)p.r(U)p.r(U)p.r(C)p.r(C)p.r(U)p.r(U)p.r(C)p.m(A)p.r(U)p.r(C)p.r(U)p.r(G)p.r(U)p.r(C)p.r(G)p.r(G)p.m(A)p.r(G)p.r(T)p.r(T)}$$$RNA1{StrandType:ss}|RNA2{StrandType:as}$”, the target mRNA knockdown is 46%.

Take “RNA1{m(C)p.r(U)p.m(C)p.r(C)p.m(U)p.r(U)p.m(C)p.r(A)p.m(U)p.r(U)p.m(C)p.r(C)p.m(A)p.r(G)p.m(C)p.r(C)p.m(U)p.r(A)p.m(U)p.r(T)p.r(T)}|RNA2{r(A)p.r(U)p.r(A)p.r(G)p.r(G)p.r(C)p.r(U)p.r(G)p.r(G)p.r(A)p.r(A)p.r(U)p.r(G)p.r(A)p.r(A)p.r(G)p.r(G)p.r(A)p.r(G)p.r(T)p.r(T)}$$$RNA1{StrandType:ss}|RNA2{StrandType:as}$”: the target mRNA knockdown was 51%.

Take “RNA1{m(C)p.r(U)p.m(C)p.r(U)p.m(G)p.r(G)p.m(C)p.r(C)p.m(U)p.m(U)p.r(U)p.r(C)p.m(U)p.r(C)p.m(U)p.r(C)p.m(U)p.r(A)p.m(G)p.r(T)p.r(T)}|RNA2{r(C)p.r(U)p.r(A)p.r(G)p.r(A)p.r(G)p.r(A)p.r(G)p.r(A)p.r(A)p.r(A)p.r(G)p.r(G)p.r(C)p.r(C)p.r(A)p.r(G)p.r(A)p.r(G)p.r(T)p.r(T)}$$$RNA1{StrandType:ss}|RNA2{StrandType:as}$”: the target mRNA knockdown came to 24%.

Substance “RNA1{m(C)p.r(U)p.m(G)p.r(A)p.m(C)p.r(C)p.m(G)p.r(G)p.m(A)p.r(A)p.m(G)p.r(C)p.m(G)p.r(C)p.m(U)p.r(U)p.m(A)p.r(A)p.r(A)p.r(T)p.r(T)}|RNA2{r(U)p.r(U)p.r(U)p.r(A)p.r(A)p.r(G)p.r(C)p.r(G)p.m(C)p.r(U)p.r(U)p.r(C)p.m(C)p.r(G)p.r(G)p.r(U)p.m(C)p.r(A)p.r(G)p.r(T)p.r(T)}$$$RNA1{StrandType:ss}|RNA2{StrandType:as}$” registered a target mRNA knockdown of 27%.

“RNA1{m(G)p.m(A)p.m(G)p.m(G)p.m(A)p.m(A)p.m(G)p.m(A)p.r(U)p.m(G)p.m(A)p.m(G)p.r(U)p.r(U)p.m(G)p.r(U)p.m(A)p.r(C)p.r(C)p.r(T)p.r(T)}|RNA2{r(G)p.r(G)p.r(U)p.r(A)p.r(C)p.r(A)p.r(A)p.r(C)p.r(U)p.r(C)p.r(A)p.r(U)p.r(C)p.r(U)p.r(U)p.r(C)p.r(C)p.r(U)p.r(C)p.r(T)p.r(T)}$$$RNA1{StrandType:ss}|RNA2{StrandType:as}$”: the target mRNA knockdown worked out at 70%.

Regarding “RNA1{m(G)p.m(C)p.m(A)p.m(G)p.m(C)p.m(A)p.m(C)p.m(G)p.m(A)p.m(C)p.m(U)p.m(U)p.m(C)p.m(U)p.m(U)p.m(C)p.m(A)p.m(A)p.m(G)p.r(T)p.r(T)}|RNA2{m(C)p.m(U)p.m(U)p.m(G)p.m(A)p.m(A)p.m(G)p.m(A)p.m(A)p.m(G)p.m(U)p.m(C)p.m(G)p.m(U)p.m(G)p.m(C)p.m(U)p.m(G)p.m(C)p.r(T)p.r(T)}$$$RNA1{StrandType:ss}|RNA2{StrandType:as}$”, the target mRNA knockdown stood at 0%.

In the case of “RNA1{m(G)p.m(C)p.m(A)p.m(G)p.m(C)p.m(A)p.m(C)p.m(G)p.m(A)p.m(C)p.m(U)p.m(U)p.m(C)p.m(U)p.m(U)p.m(C)p.m(A)p.m(A)p.m(G)p.r(T)p.r(T)}|RNA2{r(C)p.r(U)p.r(U)p.r(G)p.r(A)p.r(A)p.r(G)p.r(A)p.r(A)p.r(G)p.r(U)p.r(C)p.r(G)p.r(U)p.r(G)p.r(C)p.r(U)p.r(G)p.r(C)p.r(T)p.r(T)}$$$RNA1{StrandType:ss}|RNA2{StrandType:as}$”, the target mRNA knockdown was 25%.

Consider “RNA1{m(G)p.m(G)p.m(A)p.r(C)p.r(U)p.m(A)p.r(C)p.r(U)p.m(A)p.m(A)p.r(C)p.r(C)p.r(U)p.r(C)p.r(C)p.m(A)p.m(G)p.r(U)p.r(U)p.r(T)p.r(T)}|RNA2{r(A)p.r(A)p.r(C)p.r(U)p.r(G)p.r(G)p.r(A)p.r(G)p.r(G)p.r(U)p.r(U)p.r(A)p.r(G)p.r(U)p.r(A)p.r(G)p.r(U)p.r(C)p.r(C)p.r(T)p.r(T)}$$$RNA1{StrandType:ss}|RNA2{StrandType:as}$”, for which the target mRNA knockdown came out at 65%.
